In patent publication US9365522B2, “Pyrazole amide derivative” (AMGEN INC., priority 2015, dated 2016):

Target: T1, ligand binding domain of human ROR gamma (Homo sapiens, UniProt P51449)
T1 construct: NM_001001523; expressed in transfected cells; host or cells: HEK293T
T1 sequence (P51449 247-497 isoform P51449-2): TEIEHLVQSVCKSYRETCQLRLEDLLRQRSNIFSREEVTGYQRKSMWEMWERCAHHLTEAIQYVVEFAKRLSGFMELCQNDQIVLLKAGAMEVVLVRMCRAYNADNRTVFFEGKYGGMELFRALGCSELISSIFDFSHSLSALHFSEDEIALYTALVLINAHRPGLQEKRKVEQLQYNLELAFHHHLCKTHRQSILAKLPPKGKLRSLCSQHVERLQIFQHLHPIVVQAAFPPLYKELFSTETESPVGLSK
Assay: ROR gamma reporter gene assay (GAL4-RORγ LBD luciferase, Dual-Glo)
Type: cell-based
Conditions: HEK293T cells transfected with pM-ROR gamma, 8 concentrations 3.5 nM to 10.5 μM, 24 h incubation; read-out: result (pIC50, inhibition of RORγ transcriptional activity) (converted)
In short: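 Inhibition of RORγ-driven transcription was measured in HEK293T cells expressing a GAL4 fusion of the human RORγ LBD (aa 247-497), with renilla luciferase as internal control. Cells in 10% charcoal-stripped serum received compound (3.5 nM–10.5 μM) for 24 h.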

| Compound | IC50 [pM] |
| --- | --- |
| O=C(CN(Cc1cc(F)cc(F)c1)C(=O)c1cnn([C@H]2CC[C@H](C(=O)O)CC2)c1C(F)(F)F)c1c(Cl)cc(Cl)cc1Cl [Example 56, trans-4-(4-((3,5-difluorobenzyl)(2-oxo-2-(2,4,6-trichlorophenyl)ethyl)carbamoyl)-5-(trifluoromethyl)-1H-pyrazol-1-yl)cyclohexanecarboxylic acid] | 15500 |
| O=C(CN(Cc1cc(F)cc(F)c1)C(=O)c1cnn([C@H]2CC[C@H](C(=O)O)CC2)c1C(F)(F)F)c1c(Cl)cc(C(F)(F)F)cc1Cl [Example 57, trans-4-(4-((2-(2,6-dichloro-4-(trifluoromethyl)phenyl)-2-oxoethyl)(3,5-difluorobenzyl)carbamoyl)-5-(trifluoromethyl)-1H-pyrazol-1-yl)cyclohexanecarboxylic acid] | 38000 |
| N#Cc1cc(Cl)c(C(=O)CN(Cc2cc(F)cc(F)c2)C(=O)c2cnn([C@H]3CC[C@H](C(=O)O)CC3)c2C(F)(F)F)c(Cl)c1 [Example 58, trans-4-(4-((2-(2,6-dichloro-4-cyanophenyl)-2-oxoethyl)(3,5-difluorobenzyl)carbamoyl)-5-(trifluorornethyl)-1H-pyrazol-1-yl)cyclohexanecarboxylic acid] | 135000 |
| O=C(CN(Cc1cc(F)cc(F)c1)C(=O)c1cnn([C@H]2CC[C@H](C(=O)O)CC2)c1C(F)(F)F)c1cc(Cl)cc(Cl)c1 [Example 59, trans-4-(4-((2-(3,5-dichlorophenyl)-2-oxoethyl)(3,5-difluorobenzyl)carbamoyl)-5-(trifluoromethyl)-1H-pyrazol-1-yl)cyclohexanecarboxylic acid] | 5.89e+06 |
| O=C(CN(Cc1cc(F)cc(F)c1)C(=O)c1cnn([C@H]2CC[C@H](C(=O)O)CC2)c1C(F)(F)F)c1cc(F)cc(F)c1 [Example 60, trans-4-(4-((3,5-difluorobenzyl)(2-(3,5-difluorophenyl)-2-oxoethyl)carbamoyl)-5-(trifluoromethyl)-1H-pyrazol-1-yl)cyclohexanecarboxylic acid] | > 1e+07 |
| O=C(CN(Cc1cc(F)cc(F)c1)C(=O)c1cnn([C@H]2CC[C@H](C(=O)O)CC2)c1C(F)(F)F)c1ccc(F)cc1Cl [Example 61, trans-4-(4-((2-(2-chloro-4-fluorophenyl)-2-oxoethyl)(3,5-difluorobenzyl)carbamoyl)-5-(trifluoromethyl)-1H-pyrazol-1-yl)cyclohexanecarboxylic acid] | 200000 |
| O=C(CN(Cc1cc(F)cc(F)c1)C(=O)c1cnn([C@H]2CC[C@H](C(=O)O)CC2)c1C(F)(F)F)c1ccncc1 [Example 62, trans-4-(4-((3,5-difluorobenzyl)(2-oxo-2-(pyridin-4-yl)ethyl)carbamoyl)-5-(trifluoromethyl)-1H-pyrazol-1-yl)cyclohexanecarboxylic acid] | > 1e+07 |
| Cc1coc(C)c1C(=O)CN(Cc1cc(F)cc(F)c1)C(=O)c1cnn([C@H]2CC[C@H](C(=O)O)CC2)c1C(F)(F)F [Example 63, trans-4-(4-((3,5-difluorobenzyl)(2-(2,4-dimethylfuran-3-yl)-2-oxoethyl)carbamoyl)-5-(trifluoromethyl)-1H-pyrazol-1-yl)cyclohexanecarboxylic acid] | 3.39e+06 |
| Cc1noc(C)c1C(=O)CN(Cc1cc(F)cc(F)c1)C(=O)c1cnn([C@H]2CC[C@H](C(=O)O)CC2)c1C(F)(F)F [Example 64, trans-4-(4-((3,5-difluorobenzyl)(2-(3,5-dimethylisoxazol-4-yl)-2-oxoethyl)carbamoyl)-5-(trifluoromethyl)-1H-pyrazol-1-yl)cyclohexanecarboxylic acid] | > 1e+07 |
| O=C(CN(Cc1cc(F)cc(F)c1)C(=O)c1cnn([C@H]2CC[C@H](C(=O)O)CC2)c1C(F)(F)F)C1CCCCC1 [Example 65, trans-4-(4-((2-cyclohexyl-2-oxoethyl)(3,5-difluorobenzyl)carbamoyl)-5-(trifluoromethyl)-1H-pyrazol-1-yl)cyclohexanecarboxylic acid] | > 1e+07 |
| O=C(CN(Cc1cc(F)cc(F)c1)C(=O)c1cnn([C@H]2CC[C@H](C(=O)O)CC2)c1C(F)(F)F)c1c(Cl)cc(C2CC2)cc1Cl [Example 66, trans-4-(4-((2-(2,6-dichloro-4-cyclopropylphenyl)-oxoethyl)(3,5-difluorobenzyl)carbamoyl)-5-(trifluoromethyl)-1H-pyrazol-1-yl)cyclohexanecarboxylic acid] | 83200 |
| COc1cc(Cl)c(C(=O)CN(Cc2cc(F)cc(F)c2)C(=O)c2cnn([C@H]3CC[C@H](C(=O)O)CC3)c2C(F)(F)F)c(Cl)c1 [Example 67, trans-4-(4-((2-(2,6-dichloro-4-methoxyphenyl)-2-oxoethyl)(3,5-dffluorobenzyl)carbamoyl)-5-(trifluoromethyl)-1H-pyrazol-1-yl)cyclohexanecarboxylic acid] | 56200 |
| C#Cc1cccc(Cl)c1C(=O)CN(Cc1cc(F)cc(F)c1)C(=O)c1cnn([C@H]2CC[C@H](C(=O)O)CC2)c1C(F)(F)F [Example 68, trans-4-(4-((2-(2-chloro-6-ethynylphenyl)-2-oxoethyl)(3,5-difluorobenzyl)carbamoyl)-5-(trifluoromethyl)-1H-pyrazol-1-yl)cyclohexanecarboxylic acid] | 1.32e+06 |
| O=C(CN(Cc1cc(F)cc(F)c1)C(=O)c1cnn([C@H]2CC[C@H](C(=O)O)CC2)c1C(F)(F)F)c1ccc(O)cc1 [Example 69, trans-4-(4-((3,5-difluorobenzyl)(2-(4-hydroxyphenyl)-2-oxoethyl)carbamoyl)-5-(trifluoromethyl)-1H-pyrazol-1-yl)cyclohexanecarboxylic acid] | > 1e+07 |
| O=C(CN(Cc1cc(F)cc(F)c1)C(=O)c1cnn([C@H]2CC[C@H](C(=O)O)CC2)c1C(F)(F)F)c1c(Cl)cc(O)cc1Cl [Example 70, trans-4-(4-((2-(2,6-dichloro-4-hydroxyphenyl)-2-oxoethyl)(3,5-difluorobenzyl)carbarnoyl)-5-(trifluoromethyl)-1H-pyrazol-1-yl)cyclohexanecarboxylic acid] | > 1e+07 |
| O=C(CN(CC1CCOCC1)C(=O)c1cnn([C@H]2CC[C@H](C(=O)O)CC2)c1C(F)(F)F)c1c(Cl)cncc1Cl [Example 71, trans-4-(4-((2-(3,5-dichloropyridin-4-yl)-2-oxoethyl)((tetrahydro-2H-pyran-4-yl)methyl)carbamoyl)-5-(trifluoromethyl)-1H-pyrazol-1-yl)cyclohexanecarboxylic acid] | 2.09e+06 |
| O=C(CN(CC1CC1)C(=O)c1cnn([C@H]2CC[C@H](C(=O)O)CC2)c1C(F)(F)F)c1c(Cl)cncc1Cl [Example 72, trans-4-(4-((cyclopropylmethyl)(2-(3,5-dichloropyridin-4-yl)-2-oxoethyl)carbamoyl)-5-(trifluoromethyl)-1H-pyrazol-1-yl)cyclohexanecarboxylic acid] | 1.32e+06 |
| CC(C)(F)CN(CC(=O)c1c(Cl)cncc1Cl)C(=O)c1cnn([C@H]2CC[C@H](C(=O)O)CC2)c1C(F)(F)F [Example 73, trans-4-(4-((2-(3,5-dichloropyridin-4-yl)-2-oxoethyl)(2-fluoro-2-methylpropyl)carbamoyl)-5-(trifluoromethyl)-1H-pyrazol-1-yl)cyclohexanecarboxylic acid] | 646000 |
| COC(C)(C)CN(CC(=O)c1c(Cl)cncc1Cl)C(=O)c1cnn([C@H]2CC[C@H](C(=O)O)CC2)c1C(F)(F)F [Example 74, trans-4-(4-((2-(3,5-dichloropyridin-4-yl)-2-oxoethyl)(2-methoxy-2-methylpropyl)carbamoyl)-5-(trifluoromethyl)-1H-pyrazol-1-yl)cyclohexanecarboxylic acid] | 263000 |
| O=C(CN(CC(F)(F)F)C(=O)c1cnn([C@H]2CC[C@H](C(=O)O)CC2)c1C(F)(F)F)c1c(Cl)cncc1Cl [Example 75, trans-4-(4-((2-(3,5-dichloropyridin-4-yl)-2-oxoethyl)(2,2,2-trifluoroethyl)carbamoyl)-5-(trifluoromethyl)-1H-pyrazol-1-yl)cyclohexanecarboxylic acid] | 316000 |
| O=C(CN(Cc1ccncc1)C(=O)c1cnn([C@H]2CC[C@H](C(=O)O)CC2)c1C(F)(F)F)c1c(Cl)cncc1Cl [Example 76, trans-4-(4-((2-(3,5-dichloropyridin-4-yl)-2-oxoethyl)(pyridin-4-ylmethyl)carbamoyl)-5-(trifluoromethyl)-1H-pyrazol-1-yl)cyclohexanecarboxylic acid] | 1.7e+06 |
| C[C@]1(C(=O)O)CC[C@H](n2ncc(C(=O)N(CC(=O)c3c(Cl)cncc3Cl)Cc3ccc(F)cc3)c2C(F)(F)F)CC1 [Example 77, trans-4-(4-((2-(3,5-dichloropyridin-4-yl)-2-oxoethyl)(4-fluorobenzyl)carbamoyl)-5-(trifluoromethyl)-1H-pyrazol-1-yl)-1-methylcylohexanecarboxylic acid] | 33900 |
| C[C@]1(C(=O)O)CC[C@H](n2ncc(C(=O)N(CC(=O)c3c(Cl)cncc3Cl)Cc3cc(F)cc(F)c3)c2C(F)(F)F)CC1 [Example 78, trans-4-(4-((2-(3,5-dichloropyridin-4-yl)-2-oxoethyl)(3,5-difluorobenzyl)carbamoyl)-5-(trifluoromethyl)-1H-pyrazol-1-yl)-1-methylcyclohexanecarboxylic acid] | 10000 |
